Experimental data: US10286034B2, “Uses of bremelanotide in therapy for female sexual dysfunction” (Palatin Technologies, Inc., priority 2012, dated 2019)
Marks after values point to notes of the source that are not given here.

Columns and labels:
Type in all cases: in vivo, human
[1] = Example 1: ambulatory blood pressure monitoring after in-clinic dose; settings: for Pulse: treatment group difference (from placebo) in mean change: in bpm; for DBP: treatment group difference (from placebo) in mean change / SBP: treatment group difference (from placebo) in mean change: in mmHg (unit assumed); for HR-BP Product: treatment group difference (from placebo) in mean change: in mmHg·bpm (unit assumed)
Procedure: Ambulatory blood pressure monitoring was conducted following both placebo and randomized treatment group in-clinic administrations. Three periods of ambulatory blood pressure monitoring were included, the first period was from before to 24 hours after a single, in-clinic dose of placebo (to establish a baseline); the second and third periods occurred from before to 24 hours after each of 2 single, in-clinic doses of double-blind treatment, administered within 14 days of each other. Blood samples for pharmacokinetic analysis were collected before and at 0.5, 1.0, and 2.0 hours after each in-clinic bremelanotide single-dose treatment (double-blind only), to permit analysis of concentration-response relationships.
Mean changes in blood pressure were characterized in all subjects based on sequential supervised dosing of single-blind subcutaneous placebo and two doses of randomized study drug. The primary analysis for mean changes was the difference between treatment groups in the change from single-blind placebo to randomized drug (Visit 2 vs. Visits 5/7). There were between 86 to 100 subjects in each dose group.
Although there were an increased number of outliers for maximal changes from baseline in systolic blood pressure in drug-treated patients, the duration of these events was quite limited. The interrogation interval during ambulatory blood pressure monitoring assessments of 15 minutes allowed definition of the maximal duration of such excursions. […] The clinical significance of such changes, if any, is small.

[2] = test system: healthy adult female subjects; assay: Phase 1 single dose escalation, subcutaneous; vaginal photoplethysmography with visual sexual stimulation
Procedure: In a double-blind, placebo-controlled, single dose, dose escalation Phase 1 study to determine the maximum tolerated dose in healthy adult female subjects, doses of from 0.3 to 5.0 mg (0.3, 1.0, 3.0 and 5.0 mg) of bremelanotide were administered by subcutaneous injection. However, this study specifically excluded women with a diagnosis of FSD, and thus could not determine an effective dose for treatment of FSD. The study did employ a measure of pharmacodynamic effect, defined as an increase of sexual arousal response in the presence of visual sexual stimulation as measured by vaginal blood flow with vaginal photoplethysmography (using a Geer gauge device), which measures vaginal pulse amplitude.

[3] = Pharmacokinetics of subcutaneous administration in healthy adult males; settings: after subcutaneous administration
Text: Results of Tmax values were compared between subcutaneous administration (SC) and intranasal (IN) administration of various doses of bremelanotide, as shown in FIG. 1.

[4] = Adverse events with single-dose SC administration (Trials -14, -06, -10)
Procedure: Subcutaneous dosing was tested in 5 Phase 1 trials (3 in females, 2 in males) and one Phase 2 trial (males). The most common adverse events associated with single-dose SC bremelanotide administration (Trials −14, −06, and −10) were somnolence (30%), flushing (15%), nausea (19%), and vomiting (10%).

[5] = 0.75 mg SC, interval 0-24 h, V5
[6] = 0.75 mg SC, interval 0-24 h, V7
[7] = 0.75 mg SC, interval 8-24 h, V5
[8] = 0.75 mg SC, interval 8-24 h, V7
[9] = 1.25 mg SC, interval 0-24 h, V5
[10] = 1.25 mg SC, interval 0-24 h, V7
[11] = 1.25 mg SC, interval 8-24 h, V5
[12] = 1.25 mg SC, interval 8-24 h, V7
[13] = 1.75 mg SC, interval 0-24 h, V5
[14] = 1.75 mg SC, interval 0-24 h, V7
[15] = 1.75 mg SC, interval 8-24 h, V5
[16] = 1.75 mg SC, interval 8-24 h, V7

SMILES: CCCC[C@H](NC(C)=O)C(=O)N[C@H]1CC(=O)NCCCC[C@@H](C(=O)O)NC(=O)[C@H](Cc2c[nH]c3ccccc23)NC(=O)[C@H](CCCNC(=N)N)NC(=O)[C@@H](Cc2ccccc2)NC(=O)[C@H](Cc2c[nH]cn2)NC1=O [bremelanotide, Ac-Nle-cyclo(-Asp-His-D-Phe-Arg-Trp-Lys)-OH]
- Pulse: treatment group difference (from placebo) in mean change ([1]; 0.75 mg SC, interval 0-4 h, V5): −5.2*
- DBP: treatment group difference (from placebo) in mean change ([1]; 0.75 mg SC, interval 0-4 h, V5): 1.5
- SBP: treatment group difference (from placebo) in mean change ([1]; 0.75 mg SC, interval 0-4 h, V5): 1.8
- HR-BP Product: treatment group difference (from placebo) in mean change ([1]; 0.75 mg SC, interval 0-4 h, V5): −492.8*
- Pulse: treatment group difference (from placebo) in mean change ([1]; 0.75 mg SC, interval 0-4 h, V7): −4.8*
- DBP: treatment group difference (from placebo) in mean change ([1]; 0.75 mg SC, interval 0-4 h, V7): 0.6
- SBP: treatment group difference (from placebo) in mean change ([1]; 0.75 mg SC, interval 0-4 h, V7): 1.1
- HR-BP Product: treatment group difference (from placebo) in mean change ([1]; 0.75 mg SC, interval 0-4 h, V7): −491.9*
- Pulse: treatment group difference (from placebo) in mean change [1, 5]: −2.2*
- DBP: treatment group difference (from placebo) in mean change [1, 5]: 1.1*
- SBP: treatment group difference (from placebo) in mean change [1, 5]: 1.1
- HR-BP Product: treatment group difference (from placebo) in mean change [1, 5]: −187.7
- Pulse: treatment group difference (from placebo) in mean change [1, 6]: −1.6
- DBP: treatment group difference (from placebo) in mean change [1, 6]: 1.3*
- SBP: treatment group difference (from placebo) in mean change [1, 6]: 1.5
- HR-BP Product: treatment group difference (from placebo) in mean change [1, 6]: −82.3
- Pulse: treatment group difference (from placebo) in mean change ([1]; 0.75 mg SC, interval 4-8 h, V5): −6.2*
- DBP: treatment group difference (from placebo) in mean change ([1]; 0.75 mg SC, interval 4-8 h, V5): 1.3
- SBP: treatment group difference (from placebo) in mean change ([1]; 0.75 mg SC, interval 4-8 h, V5): 0.9
- HR-BP Product: treatment group difference (from placebo) in mean change ([1]; 0.75 mg SC, interval 4-8 h, V5): −676.5*
- Pulse: treatment group difference (from placebo) in mean change ([1]; 0.75 mg SC, interval 4-8 h, V7): −5.5*
- DBP: treatment group difference (from placebo) in mean change ([1]; 0.75 mg SC, interval 4-8 h, V7): 1.7
- SBP: treatment group difference (from placebo) in mean change ([1]; 0.75 mg SC, interval 4-8 h, V7): 1.6
- HR-BP Product: treatment group difference (from placebo) in mean change ([1]; 0.75 mg SC, interval 4-8 h, V7): −503.3*
- Pulse: treatment group difference (from placebo) in mean change [1, 7]: −0.4
- DBP: treatment group difference (from placebo) in mean change [1, 7]: 1.0
- SBP: treatment group difference (from placebo) in mean change [1, 7]: 0.9
- HR-BP Product: treatment group difference (from placebo) in mean change [1, 7]: 5.2
- Pulse: treatment group difference (from placebo) in mean change [1, 8]: 0.1
- DBP: treatment group difference (from placebo) in mean change [1, 8]: 1.3*
- SBP: treatment group difference (from placebo) in mean change [1, 8]: 1.6
- HR-BP Product: treatment group difference (from placebo) in mean change [1, 8]: 114.9
- Pulse: treatment group difference (from placebo) in mean change ([1]; 1.25 mg SC, interval 0-4 h, V5): −5.2*
- DBP: treatment group difference (from placebo) in mean change ([1]; 1.25 mg SC, interval 0-4 h, V5): 3.0*
- SBP: treatment group difference (from placebo) in mean change ([1]; 1.25 mg SC, interval 0-4 h, V5): 2.4*
- HR-BP Product: treatment group difference (from placebo) in mean change ([1]; 1.25 mg SC, interval 0-4 h, V5): −436.4*
- Pulse: treatment group difference (from placebo) in mean change ([1]; 1.25 mg SC, interval 0-4 h, V7): −6.1*
- DBP: treatment group difference (from placebo) in mean change ([1]; 1.25 mg SC, interval 0-4 h, V7): 2.2*
- SBP: treatment group difference (from placebo) in mean change ([1]; 1.25 mg SC, interval 0-4 h, V7): 2.1*
- HR-BP Product: treatment group difference (from placebo) in mean change ([1]; 1.25 mg SC, interval 0-4 h, V7): −583.3*
- Pulse: treatment group difference (from placebo) in mean change [1, 9]: −2.9*
- DBP: treatment group difference (from placebo) in mean change [1, 9]: 1.9*
- SBP: treatment group difference (from placebo) in mean change [1, 9]: 1.1
- HR-BP Product: treatment group difference (from placebo) in mean change [1, 9]: −265.9
- Pulse: treatment group difference (from placebo) in mean change [1, 10]: −2.6*
- DBP: treatment group difference (from placebo) in mean change [1, 10]: 1.7*
- SBP: treatment group difference (from placebo) in mean change [1, 10]: 1.6*
- HR-BP Product: treatment group difference (from placebo) in mean change [1, 10]: −206.5
- Pulse: treatment group difference (from placebo) in mean change ([1]; 1.25 mg SC, interval 4-8 h, V5): −6.1*
- DBP: treatment group difference (from placebo) in mean change ([1]; 1.25 mg SC, interval 4-8 h, V5): 2.2*
- SBP: treatment group difference (from placebo) in mean change ([1]; 1.25 mg SC, interval 4-8 h, V5): 1.4
- HR-BP Product: treatment group difference (from placebo) in mean change ([1]; 1.25 mg SC, interval 4-8 h, V5): −621.0*
- Pulse: treatment group difference (from placebo) in mean change ([1]; 1.25 mg SC, interval 4-8 h, V7): −6.5*
- DBP: treatment group difference (from placebo) in mean change ([1]; 1.25 mg SC, interval 4-8 h, V7): 0.9
- SBP: treatment group difference (from placebo) in mean change ([1]; 1.25 mg SC, interval 4-8 h, V7): 1.3*
- HR-BP Product: treatment group difference (from placebo) in mean change ([1]; 1.25 mg SC, interval 4-8 h, V7): −669.7*
- Pulse: treatment group difference (from placebo) in mean change [1, 11]: −1.5
- DBP: treatment group difference (from placebo) in mean change [1, 11]: 1.4*
- SBP: treatment group difference (from placebo) in mean change [1, 11]: 0.7
- HR-BP Product: treatment group difference (from placebo) in mean change [1, 11]: −127.4
- Pulse: treatment group difference (from placebo) in mean change [1, 12]: −0.7
- DBP: treatment group difference (from placebo) in mean change [1, 12]: 1.7*
- SBP: treatment group difference (from placebo) in mean change [1, 12]: 1.5*
- HR-BP Product: treatment group difference (from placebo) in mean change [1, 12]: 4.2
- Pulse: treatment group difference (from placebo) in mean change ([1]; 1.75 mg SC, interval 0-4 h, V5): −4.6*
- DBP: treatment group difference (from placebo) in mean change ([1]; 1.75 mg SC, interval 0-4 h, V5): 3.2*
- SBP: treatment group difference (from placebo) in mean change ([1]; 1.75 mg SC, interval 0-4 h, V5): 3.1*
- HR-BP Product: treatment group difference (from placebo) in mean change ([1]; 1.75 mg SC, interval 0-4 h, V5): −305.9
- Pulse: treatment group difference (from placebo) in mean change ([1]; 1.75 mg SC, interval 0-4 h, V7): −4.7*
- DBP: treatment group difference (from placebo) in mean change ([1]; 1.75 mg SC, interval 0-4 h, V7): 2.6*
- SBP: treatment group difference (from placebo) in mean change ([1]; 1.75 mg SC, interval 0-4 h, V7): 2.5*
- HR-BP Product: treatment group difference (from placebo) in mean change ([1]; 1.75 mg SC, interval 0-4 h, V7): −375.4*
- Pulse: treatment group difference (from placebo) in mean change [1, 13]: −2.2*
- DBP: treatment group difference (from placebo) in mean change [1, 13]: 1.9*
- SBP: treatment group difference (from placebo) in mean change [1, 13]: 1.6
- HR-BP Product: treatment group difference (from placebo) in mean change [1, 13]: −139.1
- Pulse: treatment group difference (from placebo) in mean change [1, 14]: −2.2*
- DBP: treatment group difference (from placebo) in mean change [1, 14]: 1.8*
- SBP: treatment group difference (from placebo) in mean change [1, 14]: 1.3
- HR-BP Product: treatment group difference (from placebo) in mean change [1, 14]: −184.1
- Pulse: treatment group difference (from placebo) in mean change ([1]; 1.75 mg SC, interval 4-8 h, V5): −6.6*
- DBP: treatment group difference (from placebo) in mean change ([1]; 1.75 mg SC, interval 4-8 h, V5): 2.3*
- SBP: treatment group difference (from placebo) in mean change ([1]; 1.75 mg SC, interval 4-8 h, V5): 2.1
- HR-BP Product: treatment group difference (from placebo) in mean change ([1]; 1.75 mg SC, interval 4-8 h, V5): −608.1*
- Pulse: treatment group difference (from placebo) in mean change ([1]; 1.75 mg SC, interval 4-8 h, V7): −6.6*
- DBP: treatment group difference (from placebo) in mean change ([1]; 1.75 mg SC, interval 4-8 h, V7): 2.2*
- SBP: treatment group difference (from placebo) in mean change ([1]; 1.75 mg SC, interval 4-8 h, V7): 2.2
- HR-BP Product: treatment group difference (from placebo) in mean change ([1]; 1.75 mg SC, interval 4-8 h, V7): −624.5*
- Pulse: treatment group difference (from placebo) in mean change [1, 15]: −0.8
- DBP: treatment group difference (from placebo) in mean change [1, 15]: 1.4*
- SBP: treatment group difference (from placebo) in mean change [1, 15]: 0.9
- HR-BP Product: treatment group difference (from placebo) in mean change [1, 15]: −23.7
- Pulse: treatment group difference (from placebo) in mean change [1, 16]: −0.5
- DBP: treatment group difference (from placebo) in mean change [1, 16]: 1.4
- SBP: treatment group difference (from placebo) in mean change [1, 16]: 0.6
- HR-BP Product: treatment group difference (from placebo) in mean change [1, 16]: −31.3
- maximal change in systolic pressure ([1]; 1.75 mg dosing group, average of Visits 5 and 7): 3.15 mm Hg
- change in blood pressure ([1]; drug treated subjects, predominantly within 4 hours of dosing): ~2 mm Hg
- pharmacodynamic effect (vaginal pulse amplitude) ([2]; 0.3 or 1.0 mg subcutaneous, compared to placebo or baseline): no apparent pharmacodynamic effect
- pharmacodynamic effect (vaginal pulse amplitude) ([2]; 3 and 5 mg subcutaneous): statistically significant pharmacodynamic effect
- subcutaneous doses at which a pharmacodynamics effect was seen ([2]; normal female volunteers): ≥ 3 mg
- time to quantifiable concentrations in plasma [3]: ≤ 15 min
- flushing incidence [4]: 15%
- nausea incidence [4]: 19%
- somnolence incidence [4]: 30%
- vomiting incidence [4]: 10%
